Counter-ions that a name gives are not always drawn.
Legend:
HCC70 cells = experiment: Cell bioactivity detection (CyQuant), HCC70; format: cell-based; conditions: Homo sapiens, HCC70, 72 h, human breast cancer cells HCC70, 72 hours
Description: (§1) Trypsinization was performed on A2780 and HCC70 cells. Cell suspensions were respectively transferred to 15 mL of centrifuge tubes and centrifuged at 800 rpm for 5 min. The supernatant was discarded. Resuspension in a fresh culture medium (RPMI 1640+10% FBS) was performed. After counting, the cells were inoculated at 2000/well in a 384-well plate (50 φL of 1640+10% FBS culture medium was added to the 2nd line and the 23rd line of the 384-well plate, and 50 μL of DPBS was added to surrounding wells). Incubation in an incubator (37° C., 5% CO2) was performed overnight.
(§2) The compound was added to the well plate the next day. The compound had the highest concentration of 10 μM and was diluted at the ratio of 1:4 to form 9 concentrations. The positive compound Paclitaxel had the highest concentration of 1 μM and was diluted at the ratio of 1:3 to form 9 concentrations. The DMSO content of each well was unified to 0.2%. A cell plate was centrifuged at 800 rpm for 30 seconds. Incubation for 72 hours in an incubator (37° C., 5% CO2) was performed. On the fourth day, a Cyquant reagent (3×) was prepared according to kit instructions. Each 384-well plate was prepared in the following proportions: DPBS: 11.568 mL, CyQuant® Direct nucleic acid stain: 72 μL, CyQuant® Direct background suppressor: 360 ILL. The plates were uniformly mixed and placed for standby application at room temperature. The cell plate was taken out and placed at room temperature to be balanced for 30 min. 25 μL of Cyquant reagent (3×) was dispensed to the cells in each well of the 384-well plates by using a Multi-drop dispenser. Incubation at 37° C. for 60 or more minutes was performed. The plates were read by Acumen (Acumen was configured to have a 488 nm excitation wavelength). IC50 results were analyzed by XLFIT5 of the IDBS company.

CDK2/cyclin E1 complex = CDK2/cyclin E1 complex (Homo sapiens (Human), UniProt P24941); experiment: In vitro enzymatic inhibitory activity test, CDK2; format: biochemical; conditions: Caliper mobility shift, 180 min at 27° C.
Description: CDK7/CyclinH was diluted in a test buffer solution (20 mM MES PH6.75, 0.01% Tween20, 50 ug/mL BSA, 6 mM MgCl2) to obtain a corresponding enzyme solution with a 2.4× concentration. CDK2/CyclinE1 was diluted in a test buffer solution (20 mM MES PH6.75, 0.01% Tween20, 50 ug/mL BSA, 6 mM MgCl2) to obtain a corresponding enzyme solution with a 2.4× concentration. CDK9/CyclinT1 was diluted in a test buffer solution (20 mM MES PH6.75, 0.01% Tween20, 50 ug/mL BSA, 10 mM MgCl2) to obtain a corresponding enzyme solution with a 2.4× concentration. CDK12/CyclinK was diluted in a test buffer solution (80 mM MES PH6.5, 0.01% Tween20, 50 ug/mL BSA, 10 mM MgCl2) to obtain a corresponding enzyme solution with a 2.4× concentration. […] 2 ul of a test compound solution was mixed with 5 ul of enzyme solution. After incubating for 10 min, 5 ul of the mixed solution of the polypeptide substrate and ATP was added. After incubating at 27° C. for 180 min, 4 uL of EDTA with a 120 mM concentration was added to each sample to stop the reaction. […] A CDK9/cyclin TI complex (8 nM) and a “5-FAM-CDK9tide” peptide substrate (2 μM, synthetic fluorophore labeled peptide having the following sequence: 5-FAM-GSRTPMY-NH2, where 5-FAM was as defined above, and NH2 represented C-terminal amide) were used for testing the CDK9 inhibition. […] A CDK2/cyclin E1 complex (0.5 nM) and the “5-FAM-CDK7tide” (2 μM) as defined above were used for testing the CDK2 inhibition.
(§3) Electrophoretic separation was performed on Caliper EZ Reader II by means of a fluorogenic substrate and a phosphorylated product to analyze the reaction mixture. Data were calculated by using GraphPad Prism version 6.0. IC50 values were adjusted by means of a nonlinear regression model using a dose-response curve.

[1] = biological target: CDK12(aa686-1082)/cyclin K complex (Homo sapiens (Human), UniProt Q9NYV4); experiment: In vitro enzymatic inhibitory activity test, CDK12; format: biochemical; conditions: Caliper mobility shift, 180 min at 27° C.
Sequence of CDK12(aa686-1082)/cyclin K complex (Q9NYV4 686-1082, species assumed): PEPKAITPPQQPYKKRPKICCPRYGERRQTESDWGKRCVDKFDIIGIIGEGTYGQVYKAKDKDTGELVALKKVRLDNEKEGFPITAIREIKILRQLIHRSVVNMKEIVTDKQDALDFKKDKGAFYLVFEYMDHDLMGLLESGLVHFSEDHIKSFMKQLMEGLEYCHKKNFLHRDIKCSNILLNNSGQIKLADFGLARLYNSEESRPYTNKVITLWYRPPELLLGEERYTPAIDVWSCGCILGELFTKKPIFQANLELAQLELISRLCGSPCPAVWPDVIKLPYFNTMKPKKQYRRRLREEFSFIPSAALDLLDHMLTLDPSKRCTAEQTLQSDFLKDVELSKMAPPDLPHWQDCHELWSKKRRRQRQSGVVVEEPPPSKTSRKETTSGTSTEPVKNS
Sequence of CDK12(aa686-1082)/cyclin K complex (O75909 whole entry partner, species assumed, the tested form may be a part): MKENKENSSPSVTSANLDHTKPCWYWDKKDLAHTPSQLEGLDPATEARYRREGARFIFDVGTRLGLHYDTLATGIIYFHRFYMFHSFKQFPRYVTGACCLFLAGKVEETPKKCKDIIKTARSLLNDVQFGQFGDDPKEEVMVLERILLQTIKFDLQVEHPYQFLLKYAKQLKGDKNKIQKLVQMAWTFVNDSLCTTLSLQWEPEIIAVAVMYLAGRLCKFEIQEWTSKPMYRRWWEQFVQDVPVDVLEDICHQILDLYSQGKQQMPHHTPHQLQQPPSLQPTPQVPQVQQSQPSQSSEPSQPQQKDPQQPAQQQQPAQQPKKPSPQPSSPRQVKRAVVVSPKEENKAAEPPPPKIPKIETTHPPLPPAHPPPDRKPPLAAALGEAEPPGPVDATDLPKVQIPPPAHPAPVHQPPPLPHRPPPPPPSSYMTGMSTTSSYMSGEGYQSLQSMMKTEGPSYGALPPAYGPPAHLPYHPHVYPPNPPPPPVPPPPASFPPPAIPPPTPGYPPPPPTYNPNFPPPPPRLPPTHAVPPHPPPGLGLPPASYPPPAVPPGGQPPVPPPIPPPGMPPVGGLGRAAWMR
Description: (§4) CDK7/CyclinH was diluted in a test buffer solution (20 mM MES PH6.75, 0.01% Tween20, 50 ug/mL BSA, 6 mM MgCl2) to obtain a corresponding enzyme solution with a 2.4× concentration. CDK2/CyclinE1 was diluted in a test buffer solution (20 mM MES PH6.75, 0.01% Tween20, 50 ug/mL BSA, 6 mM MgCl2) to obtain a corresponding enzyme solution with a 2.4× concentration. CDK9/CyclinT1 was diluted in a test buffer solution (20 mM MES PH6.75, 0.01% Tween20, 50 ug/mL BSA, 10 mM MgCl2) to obtain a corresponding enzyme solution with a 2.4× concentration. CDK12/CyclinK was diluted in a test buffer solution (80 mM MES PH6.5, 0.01% Tween20, 50 ug/mL BSA, 10 mM MgCl2) to obtain a corresponding enzyme solution with a 2.4× concentration. The compounds were dissolved in dimethyl sulfoxide (DMSO) at a concentration of 10 mM. […] 2 ul of a test compound solution was mixed with 5 ul of enzyme solution. After incubating for 10 min, 5 ul of the mixed solution of the polypeptide substrate and ATP was added. After incubating at 27° C. for 180 min, 4 uL of EDTA with a 120 mM concentration was added to each sample to stop the reaction. […] A CDK9/cyclin TI complex (8 nM) and a “5-FAM-CDK9tide” peptide substrate (2 μM, synthetic fluorophore labeled peptide having the following sequence: 5-FAM-GSRTPMY-NH2, where 5-FAM was as defined above, and NH2 represented C-terminal amide) were used for testing the CDK9 inhibition. […] A CDK2/cyclin E1 complex (0.5 nM) and the “5-FAM-CDK7tide” (2 μM) as defined above were used for testing the CDK2 inhibition.
as §3

CDK9/CyclinT1 = CDK9/CyclinT1 (Homo sapiens (Human), UniProt P50750); experiment: In vitro enzymatic inhibitory activity test, CDK9; format: biochemical; conditions: Caliper mobility shift, 180 min at 27° C.
Sequence of CDK9/CyclinT1 (P50750 whole entry, species assumed): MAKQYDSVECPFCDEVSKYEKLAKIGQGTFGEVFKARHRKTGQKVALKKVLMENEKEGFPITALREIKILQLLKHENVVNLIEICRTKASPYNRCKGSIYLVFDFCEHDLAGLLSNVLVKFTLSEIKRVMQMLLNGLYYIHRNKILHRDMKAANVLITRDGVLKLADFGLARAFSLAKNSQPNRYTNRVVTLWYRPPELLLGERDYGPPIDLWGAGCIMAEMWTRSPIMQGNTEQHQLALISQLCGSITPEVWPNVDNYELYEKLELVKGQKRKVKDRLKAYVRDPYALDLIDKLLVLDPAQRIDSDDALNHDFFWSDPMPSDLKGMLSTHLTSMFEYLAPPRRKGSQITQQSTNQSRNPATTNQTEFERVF
Sequence of CDK9/CyclinT1 (O60563 whole entry partner, species assumed): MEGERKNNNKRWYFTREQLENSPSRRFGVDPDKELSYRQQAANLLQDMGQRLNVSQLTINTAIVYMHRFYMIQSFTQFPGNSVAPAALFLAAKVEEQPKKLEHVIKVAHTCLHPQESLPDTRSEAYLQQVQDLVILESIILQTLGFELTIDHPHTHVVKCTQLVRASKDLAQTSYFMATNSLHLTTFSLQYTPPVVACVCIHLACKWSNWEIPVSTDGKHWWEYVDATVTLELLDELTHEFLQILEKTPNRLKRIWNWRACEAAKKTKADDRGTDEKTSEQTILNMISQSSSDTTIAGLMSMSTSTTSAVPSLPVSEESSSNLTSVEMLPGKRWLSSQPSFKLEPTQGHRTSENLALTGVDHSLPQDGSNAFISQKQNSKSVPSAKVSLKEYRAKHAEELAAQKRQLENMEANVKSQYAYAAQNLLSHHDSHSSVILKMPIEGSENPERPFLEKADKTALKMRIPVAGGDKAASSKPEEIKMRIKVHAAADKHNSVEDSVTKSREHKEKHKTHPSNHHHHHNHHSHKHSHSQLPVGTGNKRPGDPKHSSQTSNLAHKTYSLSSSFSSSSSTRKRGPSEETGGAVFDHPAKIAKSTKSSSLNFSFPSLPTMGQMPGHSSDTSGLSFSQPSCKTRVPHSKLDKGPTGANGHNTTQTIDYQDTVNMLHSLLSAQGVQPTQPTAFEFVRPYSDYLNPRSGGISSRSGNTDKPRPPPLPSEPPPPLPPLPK
Description: as §4, §3

A2780 cells = experiment: Cell bioactivity detection (CyQuant), A2780; format: cell-based, human; conditions: Homo sapiens, A2780, 72 h, ovarian carcinoma cells A2780, 72 hours
Description: as §1, §2

[2] = biological target: CDK7/cyclin H/MAT1 complex (Homo sapiens (Human), UniProt P50613); experiment: In vitro enzymatic inhibitory activity test, CDK7; format: biochemical; conditions: Caliper mobility shift, 180 min at 27° C.
Sequence of CDK7/cyclin H/MAT1 complex (P50613 whole entry, species assumed): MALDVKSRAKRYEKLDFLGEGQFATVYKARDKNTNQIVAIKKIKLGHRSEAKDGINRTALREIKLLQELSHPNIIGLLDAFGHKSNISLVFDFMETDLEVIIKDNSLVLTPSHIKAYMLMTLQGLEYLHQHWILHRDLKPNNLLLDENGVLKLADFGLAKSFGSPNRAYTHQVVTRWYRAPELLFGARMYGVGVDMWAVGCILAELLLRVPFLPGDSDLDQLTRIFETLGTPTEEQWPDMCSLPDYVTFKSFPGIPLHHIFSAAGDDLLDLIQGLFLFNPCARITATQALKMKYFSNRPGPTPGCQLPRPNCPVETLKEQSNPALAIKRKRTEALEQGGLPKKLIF
Sequence of CDK7/cyclin H/MAT1 complex (P51946 whole entry partner, species assumed): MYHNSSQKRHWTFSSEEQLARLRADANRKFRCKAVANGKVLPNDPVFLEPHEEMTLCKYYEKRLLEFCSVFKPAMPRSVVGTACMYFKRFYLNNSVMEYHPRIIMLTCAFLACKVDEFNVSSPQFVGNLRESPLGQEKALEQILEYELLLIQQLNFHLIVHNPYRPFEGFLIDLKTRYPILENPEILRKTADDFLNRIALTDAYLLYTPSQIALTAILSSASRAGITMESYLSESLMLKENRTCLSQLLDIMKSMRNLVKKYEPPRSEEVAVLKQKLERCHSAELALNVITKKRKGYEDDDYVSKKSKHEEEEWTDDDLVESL
Sequence of CDK7/cyclin H/MAT1 complex (P51948 whole entry partner, species assumed): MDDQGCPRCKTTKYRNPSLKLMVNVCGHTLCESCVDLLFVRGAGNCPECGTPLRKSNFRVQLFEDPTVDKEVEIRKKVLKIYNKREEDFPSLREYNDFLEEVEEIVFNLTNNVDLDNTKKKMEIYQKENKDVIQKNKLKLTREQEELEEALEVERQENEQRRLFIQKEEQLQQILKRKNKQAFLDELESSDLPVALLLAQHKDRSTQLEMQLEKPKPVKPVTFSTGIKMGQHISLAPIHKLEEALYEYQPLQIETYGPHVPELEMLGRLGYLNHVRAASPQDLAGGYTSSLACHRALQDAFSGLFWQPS
Description: as §4, §3

Compound | IC50 (HCC70 cells) | IC50 (CDK2/cyclin E1 complex) | IC50 [1] | IC50 (CDK9/CyclinT1) | IC50 (A2780 cells) | IC50 [2]
FC(F)(F)c1cnc(N[C@H]2CCCNC2)nc1-c1c[nH]c2nc(N3CC4CC(C3)O4)ccc12 [Compound 34, 4-(6-(6-oxo-3-azabicyclo[3.1.1]heptan-3-yl)-1H-pyrrol[2,3-b]pyridin-3-yl)-N—((S)-piperidin-3-yl)-5-(trifluoromethyl)pyrimidine-2-amine] | 15 nM | 1270 nM | 1090 nM | 1660 nM | 3.3 nM | 40.2 nM
CC1(C)CC[C@H](Nc2ncc(C(F)(F)F)c(-c3c[nH]c4nc(N5CCOCC5)ccc34)n2)CN1 [Compound 60, (S)—N-(6,6-dimethylpiperidin-3-yl)-4-(6-morpholinyl-1H-pyrrol[2,3-b]pyridin-3-yl)-5-(trifluoromethyl)pyrimidine-2-amine] | 475 nM | > 10000 nM | > 10000 nM | 8070 nM | 36 nM | 8.79 nM
C[C@@H]1COCCN1c1ccc2c(-c3nc(N[C@H]4CCCNC4)ncc3C(F)(F)F)c[nH]c2n1 [Compound 19, 4-(6-((R)-3-methylmorpholinyl)-1H-pyrrolo[2,3-b]pyridin-3-yl)-N—((S)-piperidin-3-yl)-5-(trifluoromethyl)pyrimidine-2-amine] | 220 nM | > 10000 nM | 8720 nM | > 10000 nM | 185 nM | 159 nM
OC1CCN(c2ccc3c(-c4nc(N[C@H]5CCCNC5)ncc4C(F)(F)F)c[nH]c3n2)CC1 [Compound 3, (S)-1-(3-(2-(piperidin-3-ylamino)-5-(trifluoromethyl)pyrimidin-4-yl)-1H-pyrrolo[2,3-b]pyridin-6-yl)piperidin-4-ol] | 7.9 nM | 2680 nM | 679 nM | 722 nM | 12 nM | 17.4 nM
FC(F)(F)c1cnc(N[C@H]2CCCNC2)nc1-c1c[nH]c2nc(C3CCOC3)ccc12 (single isomer, unassigned) [Compound 107] | 6.77 nM | 1510 nM | 567 nM | 1440 nM | 6.27 nM | 6.4 nM
FC(F)(F)c1cnc(N[C@H]2CCCNC2)nc1-c1c[nH]c2nc(N3CCN(C4COC4)CC3)ccc12 [Compound 24, (S)-4-(6-(4-(oxetan-3-yl)piperazin-1-yl)-1H-pyrrolo[2,3-b]pyridin-3-yl)-N-(piperidin-3-yl)-5-(trifluoromethyl)pyrimidine-2-amine] | 72 nM | 8500 nM | 1970 nM | 5250 nM | 110 nM | 17.4 nM
FC(F)(F)c1cnc(N[C@H]2CCCNC2)nc1-c1c[nH]c2nc(N3CC4(COC4)C3)ccc12 [Compound 14, (S)-4-(6-(2-oxa-6-azaspiro[3.3]heptan-6-yl)-1H-pyrrolo[2,3-b]pyridin-3-yl)-N-(piperidin-3-yl)-5-(trifluoromethyl)pyrimidine-2-amine] | 24 nM | 3290 nM | 555 nM | 1670 nM | 11 nM | 7.11 nM
C[C@H]1COCCN1c1ccc2c(-c3nc(N[C@H]4CCC(C)(C)NC4)ncc3C(F)(F)F)c[nH]c2n1 [Compound 26, N—((S)-6,6-dimethylpiperidin-3-yl)-4-(6-((S)-3-methylmorpholinyl)-1H-pyrrolo[2,3-b]pyridin-3-yl)-5-(trifluoromethyl)pyrimidine-2-amine] | 52 nM | > 10000 nM | > 10000 nM | > 10000 nM | 30 nM | 9.5 nM
C[C@@H]1CNC[C@@H](Nc2ncc(C(F)(F)F)c(-c3c[nH]c4nc(N5CCOC[C@@H]5C)ccc34)n2)C1 [Compound 115, 4-(6-((S)-3-methylmorpholinyl)-1H-pyrrol[2,3-b]pyridin-3-yl)-N-((3S,5S)-5-methylpiperidin-3-yl)-5-(trifluoromethyl)pyrimidine-2-amine] | 42 nM | 19500 nM | 12900 nM | 27700 nM | 45.5 nM | 9.52 nM
OCC1CCN(c2ccc3c(-c4nc(N[C@H]5CCCNC5)ncc4C(F)(F)F)c[nH]c3n2)CC1 [Compound 4] | 6.1 nM | 1480 nM | 733 nM | 682 nM | 8 nM | 17.4 nM
FC(F)(F)c1cnc(N[C@H]2CCCNC2)nc1-c1c[nH]c2nc(N3CCC4(CCOC4)CC3)ccc12 [Compound 9, (S)-4-(6-(2-oxa-8-azaspiro[4.5]decan-8-yl)-1H-pyrrolo[2,3-b]pyridin-3-yl)-N-(piperidin-3-yl)-5-(trifluoromethyl)pyrimidine-2-amine] | 44 nM | 7290 nM | 1270 nM | 4530 nM | 36.3 nM | 28.7 nM
CC1(C#N)CN(c2ccc3c(-c4nc(N[C@H]5CCCNC5)ncc4C(F)(F)F)c[nH]c3n2)C1 [Compound 21, (S)-3-methyl-1-(3-(2-(piperidine-3-amino)-5-(trifluoromethyl)pyrimidin-4-yl)-1H-pyrrolo[2,3-b]pyridin-6-yl)azetidine-3-formonitrile] | 27.8 nM | 4330 nM | 818 nM | 2980 nM | 19 nM | 8.81 nM
CP(C)(=O)c1ccc2c(-c3nc(N[C@H]4CCCNC4)ncc3C(F)(F)F)c[nH]c2n1 [Compound 114, (S)-dimethyl(3-(2-(piperidine-3-amino)-5-(trifluoromethyl)pyrimidin-4-yl)-1H-pyrrolo[2,3-b]pyridin-6-yl)phosphine oxide formate] | 18.1 nM | 1720 nM | 1210 nM | 2470 nM | 17.6 nM | 6.73 nM

Source: patent publication US20240132489A1, “AROMATIC HETEROCYCLIC COMPOUND, PHARMACEUTICAL COMPOSITION, AND USE THEREOF” (GT APEIRON THERAPEUTICS LIMITED, priority 2020, published 2024)
